Data published in US20100178651A1, “Bifunctional Predictors of Cancer Treatment Sensitivity and Resistance” (priority 2006, published 2010).

Legend:
breast cancer cells = test: Drug sensitivity of breast cancer cells after down regulation of Tau by siRNA; type: cell-based; settings: cancer cells in vitro
Description: Low expression of Tau is associated with known clinicopathological predictors of response to chemotherapy such as ER-negative status and high nuclear grade. However, in contrast to these predictors that are not treatment regimen-specific, low Tau may predict extreme sensitivity to a particular drug, paclitaxel. Since Tau is a microtubule associated protein, Tau has a mechanistic role in determining cellular response to paclitaxel, which is a microtubule poison.
The inventors have validated this association at the protein level on an independent set of patients (n=122) using immunohistochemistry. […] Tau partially protects cells from paclitaxel induced apoptosis by reducing paclitaxel binding to tubulin and reducing paclitaxel induced microtubule polymerization. […] As described herein, low levels of Tau mRNA expression as measured by, but not limited to, cDNA microarrays or Tau protein expression detected by immunohistochemistry, are associated with higher rates of pathologic CR to T/FAC pre-operative chemotherapy for stage I-III breast cancer. […] Pathologic CR in this context means complete eradication of the invasive cancer from the breast and lymph nodes by chemotherapy and has consistently been associated with excellent long-term survival that is independent of other tumor characteristics.

[1] = test system: ER-positive breast cancer; test: 5 years of adjuvant tamoxifen in patients with ER-positive breast cancer: distant relapse; type: in vivo, human; settings: for 10-year distant metastasis-free survival: adjuvant tamoxifen
Description: To examine the value of Tau as predictor of survival after 5 years of adjuvant tamoxifen therapy, we used data provided by the Institut Jules Bordet. This included gene expression and survival data on 267 patients with ER-positive tumors treated with adjuvant tamoxifen. […] In all data sets, ER-status was determined from routine pathological assessment including immunohistochemistry or ER-ligand-binding assay for the older specimens. The cut-off for ER-positivity was 10 fmol/mg protein or >10% positive cells by immunohistochemistry.
This test was used because of the non-normal distribution of Tau. The prognostic value of Tau in untreated and tamoxifen-treated patients was assessed by examining the association between Tau expression and the occurrence of distant metastases using the Wilcoxon test. To assess if covariates including grade, tumor size and nodal status were associated with Tau levels we performed multivariate linear regression analysis. Kaplan-Meier survival curves were compared using the Log-rank test. In order to generate Kaplan-Meier curves, patients had to be assigned to various Tau expression groups. However, no cut off points have been established previously to assign low or high Tau status to cases based on microarray results. Furthermore, normalized expression values differed between the data sets, particularly for the prognostic data set that used different normalization procedure. In the absence of accepted cut off values and considering the non-normal expression distribution of Tau, we grouped patients by tertiles and quartiles.

[2] = Tamoxifen treated group (n = 267)

| SMILES | change of sensitivity to the drug on down regulation of Tau with siRNA (breast cancer cells) | Metastases within 5 years: No, patients (%) [1, 2] | Metastases within 5 years: Yes, patients (%) [1, 2] | 10-year distant metastasis-free survival ([1]; Tau mRNA levels <183) | 10-year distant metastasis-free survival ([1]; Tau mRNA levels >183) |
| --- | --- | --- | --- | --- | --- |
| COc1cccc2c1C(=O)c1c(O)c3c(c(O)c1C2=O)C[C@@](O)(C(=O)CO)C[C@@H]3O[C@H]1C[C@H](N)[C@@H](O)[C@H](C)O1 [epirubicin] | not to epirubicin |  |  |  |  |
| CC(=O)O[C@H]1C(=O)[C@@]2(C)[C@H]([C@H](OC(=O)c3ccccc3)[C@]3(O)C[C@H](OC(=O)[C@H](O)[C@@H](NC(=O)c4ccccc4)c4ccccc4)C(C)=C1C3(C)C)[C@]1(OC(C)=O)CO[C@@H]1C[C@@H]2O [paclitaxel] | increases their sensitivity |  |  |  |  |
| CC/C(=C(\c1ccccc1)c1ccc(OCCN(C)C)cc1)c1ccccc1 [tamoxifen] |  | 160 (60%) | 38 (14%) | 65% | 78% |
